These results are taken from patent US11498923B2 (Merck Sharp & Dohme Corp., priority 2017, dated 2022).

This assay addresses T1, human A2a receptor (Homo sapiens, UniProt P29274).
T1 construct: purchased Perkin-Elmer RBHA2AM400UA; host or cells: HEK293 cells, used as a membrane preparation
Nature of the assay: A2a receptor competition binding assay (Scintillation Proximity). As to conditions: membranes from HEK293 cells expressing human A2a receptor; 0.5 nM tritiated ligand; Cheng-Prusoff; read-out: A2a Ki. As for the experimental part:
Binding affinities of compounds of the invention for the human A2a receptor were determined in a competition binding assay using Scintillation Proximity technology. Thus, 0.3 μg of membranes from HEK293 cells expressing the human A2a receptor were incubated with a compound of the invention at concentrations ranging from 3000 nM to 0.15 nM in a reaction mixture containing also 0.5 nM of a tritiated form of 5-amino-7-[2-phenethyl]-2-(furan-2-yl)-7H-pyrazolo[4,3-e][1,2,4]triazolo[1,5-c]pyrimidine (the tritiated compound) and 100 μg of wheat germ agglutin-coated yttrium silicate SPA beads for one hour at room temperature with agitation. The beads were then allowed to settle to the bottom of the wells for 1 hr, after which the membrane-associated radioactivity was determined by scintillation counting in a TopCount microplate reader. Ki values were determined using the Cheng-Prusoff equation.
Summary of Materials and Methods Used in A2a Activity Determination:
HEK293 cells expressing the human, rat, dog or monkey adenosine 2a receptor (Purchased from Perkin-Elmer #RBHA2AM400UA).
The Tritiated compound was prepared according to published methods.
Wheat germ agglutinin-coated yttrium silicate SPA beads (GE Healthcare #RPNQ0023). Dilute to 25 mg/ml in assay buffer.
Assay Buffer was prepared using Dulbecco's calcium and magnesium free phosphate buffered saline+10 mMMgCl2
Adenosine deaminase from calf intestine, 10 mg/2 ml (Roche #10 102 105 001).
A2a antagonist standard (9-chloro-1-(2-furanyl)-[1,2,4]triazolo1,5-c]quinazolin-5-amine from Tocris Bioscience)
Make eight 1:3 serial dilutions in 100% DMSO from a 3 mM compound stock
Transfer 50 nl of compound into a 384-well OptiPlate (Perkin Elmer).
Typically, final concentrations of compound used in the assay ranged from 3000 nM to 0.152 nM.
Dilute a solution of the Tritiated compound to 1.25 nM in assay buffer. This is a 2.5× solution. The final concentration in the assay is 0.5 nM. Calculate the concentration by counting two 5 μl aliquots.
Use 0.25 ug of membrane/well. Dilute membranes to 9.7 μg/ml in assay buffer. Treat with 20 ug/ml adenosine deaminase (ADA) for 15 minutes at room temperature to degrade endogenous adenosine.
Use 100 μg/well wheat germ agglutinin-coated yttrium silicate SPA beads.
Mix ADA-treated membranes and SPA beads together for 30 min prior to assay.
To the Perkin-Elmer Optiplate-384 containing the compound titration add 20 μl of 2.5× solution of the Tritiated compound and 30 μl of the membrane-bead mixture. Incubate for one hour at room temperature with agitation.
Include total binding (assay buffer+1% DMSO) and non-specific binding (CGS15943, 1 μM) wells.
Allow the beads to settle for one hour.
A curve fitting program (i.e., Prism, Activity Base, Chemcart) is used to determine the EC50. The Ki value is calculated using the Cheng-Prusoff equation. Ki=EC50/(1+(radioligand concentration/Kd))

T1 sequence (P29274 whole entry): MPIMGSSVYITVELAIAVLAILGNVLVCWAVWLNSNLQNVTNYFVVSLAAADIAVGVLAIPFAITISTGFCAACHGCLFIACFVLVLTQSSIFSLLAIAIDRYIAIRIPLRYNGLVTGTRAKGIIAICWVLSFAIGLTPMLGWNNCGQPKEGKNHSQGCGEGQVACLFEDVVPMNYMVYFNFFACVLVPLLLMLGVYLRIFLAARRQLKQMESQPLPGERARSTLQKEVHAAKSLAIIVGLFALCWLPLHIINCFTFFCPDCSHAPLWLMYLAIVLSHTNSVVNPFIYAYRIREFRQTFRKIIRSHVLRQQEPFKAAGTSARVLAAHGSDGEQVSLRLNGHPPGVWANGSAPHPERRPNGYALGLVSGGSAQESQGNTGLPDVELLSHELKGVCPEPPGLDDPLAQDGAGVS

`COc1cccc2c1nc(N)n1cc(Cc3ccnc(N4CCOCC4)c3)nc21` [Ex-40, 7-methoxy-2-((2-morpholinopyridin-4-yl)methyl)imidazo[1,2-c]quinazolin-5-amine]: the Ki (commonly the equilibrium dissociation constant of an inhibitor or competing ligand from its target) was found to be 10 nM. In the case of `COc1cccc2c1nc(N)n1cc(Cc3ccc(N4CCOCC4)cc3)nc21` [Ex-41, 7-methoxy-2-(4-morpholinobenzyl)imidazo[1,2-c]quinazolin-5-amine] it was 15 nM; in that of `COc1cccc2c1nc(N)n1cc(Cc3cccnc3F)nc21` [Ex-42, 2-((2-fluoropyridin-3-yl)methyl)-7-methoxyimidazo[1,2-c]quinazolin-5-amine], 2.8 nM; in that of `COc1cccc2c1nc(N)n1cc(Cc3cccnc3N3CCOCC3)nc21` [Ex-43, 7-methoxy-2-((2-morpholinopyridin-3-yl)methyl)imidazo[1,2-c]quinazolin-5-amine], 5.2 nM. Take `COc1cccc2c1nc(N)n1cc(Cc3ccc(N4CCN(C(C)=O)CC4)cc3)nc21` [Ex-44, 1-(4-(4-((5-amino-7-methoxyimidazo[1,2-c]quinazolin-2-yl)methyl)phenyl)piperazin-1-yl)ethan-1-one]: the Ki is 14 nM. For the compound `COc1cccc2c1nc(N)n1cc(Cc3ccc(N4CCN(C(C)=O)CC4)nc3)nc21` [Ex-45, 1-(4-(5-((5-amino-7-methoxyimidazo[1,2-c]quinazolin-2-yl)methyl)pyridin-2-yl)piperazin-1-yl)ethan-1-one], the Ki is 4.6 nM. Take `COc1cccc2c1nc(N)n1cc(Cc3ccnc(N4CCN(C(C)=O)CC4)c3)nc21` [Ex-46, 1-(4-(4-((5-amino-7-methoxyimidazo[1,2-c]quinazolin-2-yl)methyl)pyridin-2-yl)piperazin-1-yl)ethan-1-one]: the Ki was 7.4 nM. As to `CC(=O)N1CCc2cc(Cc3cn4c(N)nc5c(F)cccc5c4n3)ccc2C1` [Ex-47, 1-(6-((5-amino-7-fluoroimidazo[1,2-c]quinazolin-2-yl)methyl)-3,4-dihydroisoquinolin-2(1H)-yl)ethan-1-one], the Ki was determined as 5.9 nM. Turning to `CC(=O)N1CCc2ccc(Cc3cn4c(N)nc5c(F)cccc5c4n3)cc2C1` [Ex-48, 1-(7-((5-amino-7-fluoroimidazo[1,2-c]quinazolin-2-yl)methyl)-3,4-dihydroisoquinolin-2(1H)-yl)ethan-1-one], the Ki was determined as 3 nM.

On to `COc1cccc2c1nc(N)n1cc(Cc3cccnc3N3CCCC3)nc21` [Ex-49, 7-methoxy-2-((2-(pyrrolidin-1-yl)pyridin-3-yl)methyl)imidazo[1,2-c]quinazolin-5-amine], for which the Ki turned out to be 6.2 nM. In the case of `COc1cccc2c1nc(N)n1cc(Cc3cccnc3N3CCCCC3)nc21` [Ex-50, 7-methoxy-2-((2-(piperidin-1-yl)pyridin-3-yl)methyl)imidazo[1,2-c]quinazolin-5-amine], the Ki worked out at 3.7 nM. Take `COc1cccc2c1nc(N)n1cc(Cc3cccnc3N3CCN(C)CC3)nc21` [Ex-51, 7-methoxy-2-((2-(4-methylpiperazin-1-yl)pyridin-3-yl)methyl)imidazo[1,2-c]quinazolin-5-amine]: the Ki turned out to be 23.9 nM. In the case of `Nc1nc2c(F)cccc2c2nc(Cc3cccc4c3CCNC4)cn12` [Ex-52, 7-fluoro-2-((1,2,3,4-tetrahydroisoquinolin-5-yl)methyl)imidazo-[1,2-c]quinazolin-5-amine] it was 11 nM.

For the compound `CC(=O)N1CCc2c(Cc3cn4c(N)nc5c(F)cccc5c4n3)cccc2C1` [Ex-53, 1-(5-((5-amino-7-fluoroimidazo[1,2-c]quinazolin-2-yl)methyl)-3,4-dihydroisoquinolin-2(1H)-yl)ethan-1-one], the Ki was 3.7 nM. Regarding `N#Cc1ccc(N2CCc3c(Cc4cn5c(N)nc6c(F)cccc6c5n4)cccc3C2)nc1` [Ex-54, 6-(5-((5-amino-7-fluoroimidazo[1,2-c]quinazolin-2-yl)methyl)-3,4-dihydroisoquinolin-2(1H)-yl)nicotinonitrile], the Ki was 3.8 nM. In the case of `N#Cc1cccc(CC(=O)N2CCc3c(Cc4cn5c(N)nc6c(F)cccc6c5n4)cccc3C2)c1` [Ex-55, 3-(2-(5-((5-amino-7-fluoroimidazo[1,2-c]quinazolin-2-yl)methyl)-3,4-dihydroisoquinolin-2(1H)-yl)-2-oxoethyl)benzonitrile], the Ki was 5.1 nM.

As for `CCCN1CCc2c(Cc3cn4c(N)nc5c(F)cccc5c4n3)cccc2C1` [Ex-56, 7-fluoro-2-((2-propyl-1,2,3,4-tetrahydroisoquinolin-5-yl)melhyl)imidazo-[1,2-c]quinazolin-5-amine], the Ki is 16 nM.

Turning to `Nc1nc2c(F)cccc2c2nc(Cc3cccc4c3CCN(CCc3ccccn3)C4)cn12` [Ex-57, 7-fluoro-2-((2-(2-(pyridin-2-yl)ethyl)-1,2,3,4-tetrahydroisoquinolin-5-yl)methyl)imidazo[1,2-c]quinazolin-5-amine], the Ki is 18 nM.

For `Nc1nc2c(F)cccc2c2nc(Cc3cccc4c3CCN(Cc3ccccn3)C4)cn12` [Ex-58, 7-fluoro-2-((2-(pyridin-2-ylmethyl)-1,2,3,4-tetrahydroisoquinolin-5-yl)methyl)imidazo[1,2-c]quinazolin-5-amine], the Ki came out at 9.9 nM. Turning to `COc1cccc2c1nc(N)n1cc(Cc3cccc4c3CCN(C(=O)Cc3ccc(F)c(F)c3)C4)nc21` [Ex-59, 1-(5-((5-amino-7-methoxyimidazo[1,2-c]quinazolin-2-yl)methyl)-3,4-dihydroisoquinolin-2(1H)-yl)-2-(3,4-difluorophenyl)ethan-1-one], the Ki is 2.9 nM. Turning to `COc1cccc2c1nc(N)n1cc(Cc3cccc4c3CCN(C(=O)CCC(F)(F)F)C4)nc21` [Ex-60, 1-(5-((5-amino-7-methoxyimidazo[1,2-c]quinazolin-2-yl)methyl)-3,4-dihydroisoquinolin-2(1H)-yl)-4,4,4-trifluorobutan-1-one], the Ki was found to be 2 nM.

As to `Cn1cc(-c2ccc(F)c3nc(N)n4cc(Cc5ccccc5)nc4c23)ccc1=O` [Ex-61, 5-(5-amino-2-benzyl-7-fluoroimidazo[1,2-c]quinazolin-10-yl)-1-methylpyridin-2(1H)-one], the Ki turned out to be 27 nM. For `COc1cccc2c1nc(N)n1cc(Cc3cccnc3N3CCC(c4ccccc4)CC3)nc21` [Ex-62, 7-methoxy-2-((2-(4-phenylpiperidin-1-yl)pyridin-3-yl)methyl)imidazo[1,2-c]quinazolin-5-amine], the Ki came to 2.2 nM. As for `Nc1nc2c(F)cccc2c2nc(Cc3ccnc(N4CCN(c5nc6ccccc6o5)CC4)c3)cn12` [Ex-63, 2-((2-(4-(benzo[d]oxazol-2-yl)piperazin-1-yl)pyridin-4-yl)methyl)-7-fluoroimidazo[1,2-c]quinazolin-5-amine], the Ki worked out at 102 nM.

Take `Nc1nc2c(F)cccc2c2nc(Cc3ccc4c(c3)CN(Cc3ccccc3)C4)cn12` [Ex-65, 2-((2-benzylisoindolin-5-yl)methyl)-7-fluoroimidazo[1,2-c]quinazolin-5-amine]: the Ki is 5.1 nM. The value for `COCCOc1ccc(N2CCN(Cc3ccccc3Cc3cn4c(N)nc5c(OC)cccc5c4n3)CC2)cc1` [Ex-66, 7-methoxy-2-(2-((4-(4-(2-methoxyethoxy)phenyl)piperazin-1-yl)methyl)benzyl)imidazo[1,2-c]quinazolin-5-amine] was 11.5 nM. In the case of `COc1cccc2c1nc(N)n1cc(Cc3ccccc3CN3CCN(c4ccccc4)CC3)nc21` [Ex-67] it was 2.2 nM. Take `Nc1nc2c(F)cccc2c2nc(Cc3ccccc3CN3CCN(c4ncccn4)CC3)cn12` [Ex-71, 7-fluoro-2-(2-((4-(pyrimidin-2-yl)piperazin-l-yl)methyl)benzyl) imidazo[1,2-c]quinazolin-5-amine]: the Ki was 5.3 nM. Turning to `Nc1nc2c(F)cccc2c2nc(Cc3ccccc3CN3CCC(N4CCOCC4)CC3)cn12` [Ex-73], the Ki amounted to 4.2 nM. In the case of `Nc1nc2c(F)cccc2c2nc(Cc3cccc(-c4cccnc4)c3)cn12` [Ex-74, 7-fluoro-2-(3-(pyridin-3-yl)benzyl)imidazo[1,2-c]quinazolin-5-amine] it was 4.5 nM; in that of `CC(c1ccc(-c2cccc(Cc3cn4c(N)nc5c(F)cccc5c4n3)c2)cc1)N1CCOCC1` (stereo not drawn) [Ex-75, 7-fluoro-2-((4′-(l-morpholinoethyl)-[1,1′-biphenyl]-3-yl)methyl)imidazo[1,2-c]quinazolin-5-amine], 6 nM.
